Data published in US20240398771A1, “TREATMENT OF SCLERODERMA AND RAYNAUD'S SYNDROME” (Aisa Pharma, Inc., priority 2023, published 2024).

Columns and labels:
participants with SSc-RP [1] = assay: SHAQ Alternative Disability Index; assay type: in vivo, human
From the text: The standard, validated, patient reported outcome measures tool for SSc patients, the Scleroderma Health Assessment Questionnaire (SHAQ), will be used to assess the participant qualify of life. Details are attached in the Appendix. The participant quality of life will be scored, and a disability index calculated for each questionnaire completed by the patient at Screening and each in-clinic visit. The absolute change in participant quality of life from baseline to the end of each dosing period will be calculated similar to frequency data as before.
The SHAQ is used to calculate a Disability Index to assess the participant qualify of life. The eight categories assessed by the Disability Index are 1) dressing and grooming, 2) arising, 3) eating, 4) walking, 5) hygiene, 6) reach, 7) grip, and 8) common daily activities. For each of these categories, patients report the amount of difficulty they have in performing two or three specific activities.
There are four possible responses for the Disability Index questions: • Without any difficulty=0 • With some difficulty=1 • With much difficulty=2 • Unable to do=3 • The highest score reported by the patient for any component question of the eight categories determines the score for that category. • If a component question is left blank or the response is too ambiguous to assign a score, then the score for that category is determined by the remaining completed question(s). • If all component questions are blank or if more than one answer is given, then follow up with the respondent is required. • If the respondent's mark is between the response columns, then move it to the closest one. If it's directly between the two, move it to the higher one.
The scoring variables and scoring rules permit the computation of two disability indices, the Standard Disability Index and the Alternative Disability Index.
The aid and device variables are not used to calculate the alternative disability index; it is calculated by adding the scores for each of the categories and dividing by the number of categories answered. This gives a score in the 0 to 3 range.

participants with SSc-RP [2] = assay: Average daily Raynaud's Condition Score (RCS); assay type: in vivo, human; parameters: key to Average Daily RCS: Baseline, Mean / Average Daily RCS: Baseline, Median: daily RCS on VAS 0-10 cm scale; settings: ITT Part A
From the text: The relevant metrics measured by this tool daily are: • Study medication • SSc-RP symptoms (Reporting an attack including duration of attack) • Severity of the attack considering all symptoms of the attack e.g. tingling, numbness, pain, color changes (VAS 0-10 cm scale) • Participant's location at the time of the attack (inside home/outside home) • Selecting symptoms experienced during the attack (tingling, numbness, pain, color changes, other) • Pain rating during the attack (11-point Likert scale) • The RCS based on how much difficulty participants had with Raynaud's today, how many attacks the participant had, and how long they lasted. Participants will also be asked to consider how much pain, numbness, or other symptoms the Raynaud's caused in fingers (including painful sores), and how much the Raynaud's alone affected the use of hands today (VAS 0-10 cm scale).
The RCS is based on how much difficulty participants had with Raynaud's today, how many attacks the participant had, and how long they lasted. In addition participants were and will be asked to consider how much pain, numbness, or other symptoms the Raynaud's caused in fingers (including painful sores), and how much the Raynaud's along affected the use of hand today (VAS 0-10 cm scale).
The absolute change in average daily RCS from baseline to the end of each dosing period was and will be a secondary outcome variable. The sponsor-developed participant-informed diary has been and will be used to record data. The average daily RCS is defined as the total RCS divided by the number of days with available diary data of each dosing period. Total RCS during screening period divided by the number of days with available data will be used as baseline for the analysis of all periods. If there are multiple daily RCS scores, the latest daily RCS will be used. The variable will be calculated similar to frequency data as before.

[3] = Cilnidipine 10 mg, excluding outliers
[4] = Cilnidipine 20 mg, excluding outliers
[5] = Pooled Cilnidipine 20 mg and Cilnidipine 20 mg + Tadalafil 5 mg, excluding outliers
[6] = Pooled Cilnidipine, excluding outliers
[7] = Tadalafil 5 mg, Modified ITT, Part A

## COCCOC(=O)C1=C(C)NC(C)=C(C(=O)OC/C=C/c2ccccc2)C1c1cccc([N+](=O)[O-])c1 (centres unmarked) [Cilnidipine, 1,4-dihydro-2,6-dimethyl,4-(3-nitrophenyl)-3,5-pyridinedicarboxylic acid 2-methoxyethyl (2 E)-3-phenyl-2-propenyl ester]
Participants with SSc-RP [1]; Cilnidipine 10 mg, Modified ITT, Part A
  Alternative disability index, Baseline, Mean: 0.500
Participants with SSc-RP [1]; Cilnidipine 20 mg, Modified ITT, Part A
  Alternative disability index, Baseline, Median: 0.250
Participants with SSc-RP [1]; Example 4, SHAQ, mITT Part A
  patient-reported SSc disease alternative disability compared to placebo: may reduce
Participants with SSc-RP [2]; [3]
  Average Daily RCS: Baseline, Mean: 2.74
  Average Daily RCS: Baseline, Median: 2.74
Participants with SSc-RP [2]; [4]
  Average Daily RCS (dosing period), Mean: 2.90
  Average Daily RCS (dosing period), Median: 2.90
  Average Daily RCS: Baseline, Median: 3.35
Participants with SSc-RP [2]; Pooled Cilnidipine 10 mg and Cilnidipine 10 mg + Tadalafil 5 mg, excluding outliers
  Average Daily RCS: Baseline, Mean: 4.07
Participants with SSc-RP [2]; [5]
  Average Daily RCS (dosing period), Mean: 3.60
  Average Daily RCS: Baseline, Mean: 4.68
  Average Daily RCS: Baseline, Median: 3.74
Participants with SSc-RP [2]; [6]
  Average Daily RCS: Baseline, Mean: 3.15
  Average Daily RCS: Baseline, Median: 2.80

## CN1CC(=O)N2[C@H](c3ccc4c(c3)OCO4)c3[nH]c4ccccc4c3C[C@@H]2C1=O [Tadalafil]
Participants with SSc-RP [1]; [7]
  Alternative disability index, Baseline, Mean: 0.688
  Alternative disability index, Change from Baseline, Mean: −0.071
  Alternative disability index, Change from Baseline, Median: −0.063
  Alternative disability index, In Clinic Visit (Day 12), Mean: 0.616
  Alternative disability index, In Clinic Visit (Day 12), Median: 0.482
  Alternative disability index, Percent Change from Baseline, Mean: 21.25%
  Alternative disability index, Percent Change from Baseline, Median: −7.69%
Participants with SSc-RP [2]; Tadalafil 5 mg
  Average Daily RCS: Baseline, Mean: 7.72
  Average Daily RCS: Baseline, Median: 7.72
